Data set [1] relates to P100 membrane fractions derived from Caco-2 cells. The data set is described as follows: Dansylated peptide ELISA on P100: PAX2 and HAX42 peptides relative binding. On the procedure: The peptides and proteins were analyzed by a dansylated peptide ELISA method in which 96 well plates were coated overnight at 4° C. with 100 μl/well coating protein (normally 100 μg/ml P100 membrane fraction) in 0.05M carbonate buffer pH9.6. Nonspecific binding was blocked using 200 μl/well, 2% Marvel/PBS for 2 hours at 37° C. prior to incubation with dansylated peptides. The plates were washed three times with PBS/0.05% Tween 20 and after each subsequent incubation step. […] A buffer blank control was included to ensure that background binding to plastic was not due to the antibodies used in the assay system. […] The plates were then incubated with an anti-mouse λ-HRP conjugated antibody (Southern Biotech 1060-05) at a 1:10,000 dilution in blocking solution, 100 μl/well for 1 hour at room temperature. Plates were developed using 75 μl/well Bionostics TMB substrate and incubated for approximately 10 minutes. The developing reaction was stopped using Bionostics Red Stop solution (25 μl/well), and the optical density of the plates was read at 650 nm.
(In general: An ELISA detects its analyte on a solid surface through an enzyme-linked reagent.)

Data set [2] in a line: Drug potency, peptide loading and size of coacervated particles. The format is physicochemical. To be noted: formulation 1 particles (coacervation), blend.
[3] abbreviates: HAX42 peptides, ratio to ZElan021 (arbitrary 1.00).
The mark [4] stands for this setting: HAX42 peptides, ratio to ZElan021 (arbitrary 1.00), first 50 μg/ml column.
Where [5] appears, read: HAX42 peptides, ratio to ZElan021 (arbitrary 1.00), second 50 μg/ml column.
Where [6] appears, read: PAX2 peptides, ratio to ZElan021 (HAX42 = 1.00), first 20 μg/ml column.
Setting [7] is: PAX2 peptides, ratio to ZElan021 (HAX42 = 1.00), first 50 μg/ml column.
Where [8] appears, read: PAX2 peptides, ratio to ZElan021 (HAX42 = 1.00), second 50 μg/ml column.
The mark [9] stands for this setting: PAX2 peptides, ratio to ZElan021 (HAX42 = 1.00), second 20 μg/ml column.

This is an account of results in patent US7135457B1, “Random peptides that bind to gastro-intestinal tract (GIT) transport receptors and related methods” (Cytogen Corporation, priority 1997, dated 2006).

Peptide text beside a SMILES is read from it. * marks the point of attachment. Dansyl = CN(C)c1cccc2c(S(=O)(=O)*)cccc12

Take `CC(C)C[C@H](NC(=O)[C@H](C)NC(=O)[C@H](Cc1c[nH]cn1)NC(=O)[C@H](CC(=O)O)NC(=O)[C@H](CO)NC(=O)[C@@H](N)CCCCNS(=O)(=O)c1cccc2c(N(C)C)cccc12)C(=O)NCC(=O)N[C@H](C(=O)N[C@@H](CC(N)=O)C(=O)N[C@@H](CC(C)C)C(=O)N[C@@H](CCCNC(=N)N)C(=O)N[C@@H](CO)C(=O)N[C@@H](CC(=O)O)C(=O)N[C@@H](CC(N)=O)C(=O)N[C@@H](C)C(=O)N[C@@H](CCCCN)C(=O)N[C@@H](CCC(=O)O)C(=O)N1CCC[C@H]1C(=O)NCC(=O)N[C@@H](CC(=O)O)C(=O)N[C@@H](Cc1ccc(O)cc1)C(=O)N[C@@H](CC(N)=O)C(=O)N[C@@H](CS)C(=O)N[C@@H](CS)C(=O)NCC(=O)N[C@@H](CC(N)=O)C(=O)NCC(=O)N[C@@H](CC(N)=O)C(=O)N[C@@H](CO)C(=O)N[C@H](C(N)=O)[C@@H](C)O)[C@@H](C)O` [ZElan070] (H-K(Dansyl)SDHALGTNLRSDNAKEPGDYNCCGNGNST-NH2): in data set [1] (setting [3]), the “Binding value at 20 μg/ml” value is 0.59. Moreover, the “Binding value at 50 μg/ml” value in data set [1] (setting [4]) was found to be 0.97; in data set [1] (setting [5]), 0.39.
With `CC(C)C[C@H](NC(=O)[C@H](CC(N)=O)NC(=O)[C@@H](N)CCCCNS(=O)(=O)c1cccc2c(N(C)C)cccc12)C(=O)N[C@@H](CCCNC(=N)N)C(=O)N[C@@H](CO)C(=O)N[C@@H](CC(=O)O)C(=O)N[C@@H](CC(N)=O)C(=O)N[C@@H](C)C(=O)N[C@@H](CCCCN)C(=O)N[C@@H](CCC(=O)O)C(=O)N1CCC[C@H]1C(=O)NCC(=O)N[C@@H](CC(=O)O)C(=O)N[C@@H](Cc1ccc(O)cc1)C(=O)N[C@@H](CC(N)=O)C(=O)N[C@@H](CS)C(=O)N[C@@H](CS)C(=O)NCC(=O)N[C@@H](CC(N)=O)C(=O)NCC(=O)N[C@@H](CC(N)=O)C(=O)N[C@@H](CO)C(=O)N[C@H](C(=O)NCC(=O)N[C@@H](CCCNC(=N)N)C(=O)N[C@@H](CCCCN)C(=O)N[C@H](C(=O)N[C@@H](Cc1ccccc1)C(=O)N[C@@H](CC(N)=O)C(=O)N[C@@H](CCCNC(=N)N)C(N)=O)C(C)C)[C@@H](C)O` [ZElan071] (H-K(Dansyl)NLRSDNAKEPGDYNCCGNGNSTGRKVFNR-NH2), the results for the “Binding value at 50 μg/ml” value in data set [1] (setting [4]) and in data set [1] (setting [5]) were 0.89 and 0.75, respectively.
For `CC[C@H](C)[C@H](NC(=O)[C@H](C)NC(=O)[C@H](CO)NC(=O)[C@@H]1CCCN1C(=O)[C@H](CCCNC(=N)N)NC(=O)[C@H](CCCNC(=N)N)NC(=O)[C@H](CC(N)=O)NC(=O)[C@H](Cc1ccccc1)NC(=O)[C@@H](NC(=O)[C@H](CCCCN)NC(=O)[C@H](CCCNC(=N)N)NC(=O)CNC(=O)[C@@H](NC(=O)[C@H](CO)NC(=O)[C@H](CC(N)=O)NC(=O)CNC(=O)[C@H](CC(N)=O)NC(=O)CNC(=O)[C@H](CS)NC(=O)[C@H](CS)NC(=O)[C@H](CC(N)=O)NC(=O)[C@H](Cc1ccc(O)cc1)NC(=O)[C@H](CC(=O)O)NC(=O)CNC(=O)[C@@H]1CCCN1C(=O)[C@@H](N)CCCCNS(=O)(=O)c1cccc2c(N(C)C)cccc12)[C@@H](C)O)C(C)C)C(=O)N1CCC[C@H]1C(=O)N[C@H](C(N)=O)[C@@H](C)O` [ZElan072] (H-K(Dansyl)PGDYNCCGNGNSTGRKVFNRRPSAIPT-NH2), the “Binding value at 20 μg/ml” value in data set [1] (setting [3]) was found to be 0.83. For the same compound, the figures for the “Binding value at 50 μg/ml” value in data set [1] (setting [4]) and in data set [1] (setting [5]) were 0.61 and 0.88, respectively.
As for `CC(C)C[C@H](NC(=O)[C@H](CCCNC(=N)N)NC(=O)[C@H](CCCNC(=N)N)NC(=O)[C@H](CC(N)=O)NC(=O)[C@H](Cc1c[nH]cn1)NC(=O)[C@H](CO)NC(=O)[C@H](CO)NC(=O)[C@@H](N)CCCCNS(=O)(=O)c1cccc2c(N(C)C)cccc12)C(=O)N[C@@H](CCCNC(=N)N)C(=O)N[C@@H](C)C(=O)N[C@@H](CCCNC(=N)N)C(N)=O` [ZElan081] (H-K(Dansyl)SSHNRRLRAR-NH2), the “Binding value at 20 μg/ml” value in data set [1] (setting [6]) is 0.01. Moreover, the “Binding value at 50 μg/ml” value in data set [1] (setting [7]) turned out to be 0.89; in data set [1] (setting [8]) it was 0.47.
As to `CC(C)C[C@H](NC(=O)[C@H](CCCNC(=N)N)NC(=O)[C@H](CCCNC(=N)N)NC(=O)[C@H](CC(N)=O)NC(=O)[C@H](Cc1c[nH]cn1)NC(=O)[C@H](CO)NC(=O)[C@H](CO)NC(=O)[C@@H](N)CCCCNS(=O)(=O)c1cccc2c(N(C)C)cccc12)C(=O)N[C@@H](CCCNC(=N)N)C(=O)N[C@H](C(=O)N[C@@H](C)C(N)=O)[C@@H](C)O` [ZElan082] (H-K(Dansyl)SSHNRRLRTA-NH2), in data set [1] (setting [6]), the “Binding value at 20 μg/ml” value was found to be 0.00. Also, the “Binding value at 50 μg/ml” value is on record as 0.92 in data set [1] (setting [7]) and 0.40 in data set [1] (setting [8]).
`CC(C)C[C@H](NC(=O)[C@H](CCCNC(=N)N)NC(=O)[C@H](CO)NC(=O)[C@@H](NC(=O)[C@H](CCCCN)NC(=O)[C@H](CC(N)=O)NC(=O)[C@H](CCCNC(=N)N)NC(=O)[C@@H](NC(=O)[C@H](CC(N)=O)NC(=O)[C@H](CCCNC(=N)N)NC(=O)[C@@H](N)CCCCNS(=O)(=O)c1cccc2c(N(C)C)cccc12)[C@@H](C)O)[C@@H](C)O)C(=O)N[C@@H](CO)C(=O)N[C@@H](C)C(=O)N[C@@H](CC(N)=O)C(=O)N1CCC[C@H]1C(=O)N[C@@H](Cc1c[nH]cn1)C(=O)N[C@@H](CCCNC(=N)N)C(=O)N[C@@H](CO)C(=O)N[C@@H](Cc1c[nH]cn1)C(=O)N[C@@H](CCCNC(=N)N)C(N)=O` [ZElan084] (H-K(Dansyl)RNTRNKTSRLSANPHRSHR-NH2): the “Binding value at 20 μg/ml” value in data set [1] (setting [9]) stood at 0.93. In addition, in data set [1] (setting [8]), the “Binding value at 50 μg/ml” value is listed as 0.77.
As to “H-K(Dansyl)GRNHDVVSSNTHKSYRSPRSASYPRLSNDRTDRTEPAPSS-NH2 [ZElan083]”, the “Binding value at 20 μg/ml” value in data set [1] (setting [6]) came to 0.43; in data set [1] (setting [9]), 0.63. Besides, the “Binding value at 50 μg/ml” value in data set [1] (setting [8]) worked out at 0.88.
On to “H-K(Dansyl)SDHALGTNLRSDNAKEPGDYNCCGNGNSTGRKVFNRRRPSAIPT-NH2 (cysteines drawn unpaired) [ZElan021]”, for which the “Binding value at 20 μg/ml” value in data set [1] (setting [3]) is on record as 1.00. Moreover, the “Binding value at 25 μg/ml” value in data set [1] (HAX42 peptides, ratio to ZElan021 (arbitrary 1.00), first 25 μg/ml column) was determined as 1.00; in data set [1] (HAX42 peptides, ratio to ZElan021 (arbitrary 1.00), second 25 μg/ml column) it was 1.00; in data set [1] (HAX42 peptides, ratio to ZElan021 (arbitrary 1.00), third 25 μg/ml column), 1.00. In addition, the “Binding value at 50 μg/ml” value in data set [1] (setting [4]) and in data set [1] (setting [5]) was 1.00 in each case.
Turning to “H-K(Dansyl)STPPSREAYSRPYSVDSDSDTNAKHSSHNRRLRTRSRPNG-NH2 [ZElan018]”, the “Binding value at 20 μg/ml” value in data set [1] (setting [6]) is reported as −0.33. Moreover, in data set [1] (setting [7]), the “Binding value at 50 μg/ml” value is 0.95.
“SPCGGSWGRFMQGGLFGGRTDGCGAHRNRTSASLEPPSSDY [SNi34]”: the “Insulin (insulin potency)” value in data set [2] (coated with the named peptide) stood at 61.5 mg/g. The “Peptide (level of peptide coated onto the particles)” value in data set [2] (measured by fluorescence) is 4.03 µL/mg.
